In PMC8586704 (Frontiers in Chemistry, 2021):
Converted amounts (≈) assume the structure as drawn. Where two headings read alike, the source gives them in different places. Starred links: 1 amine or outer side, 2 acyl side, 3 side chain; linkers in the order of their positions; H or OH if unused. Non-standard residues stand in square brackets, D forms with d. Residues, ends and D or L forms follow the SMILES beside them. Groups on a side chain read outwards from the residue. X2 = COC(=O)[C@@H](NC(=O)[C@@H](C)C[C@@H](C(=O)[*:2])N(C)[*:1])[C@@H](C)O; X3 = O=C(Cc1ccc(F)cc1)Oc1ccc(C[C@H](N[*:1])C(=O)[*:2])cc1[N+](=O)[O-]; X4 = COC(=O)[C@H](CCSC)NC(=O)[C@@H](C)C[C@@H](C(=O)[*:2])N(C)[*:1]; Trp(1-(1,1-Me2-allyl)) = C=CC(C)(C)n1cc(C[C@H](N)C(=O)O)c2ccccc21; NMeGlu(4S-Me) = C[C@@H](C[C@@H](C(=O)[*:2])N(C)[*:1])C(=O)[*:3]; X14 = C[C@@H](C[C@@H](C(=O)[*:2])N(C)[*:1])C(=O)NCc1ccc(Cl)cc1; X9 = CSCCC(=O)Oc1ccc(C[C@H](N[*:1])C(=O)[*:2])cc1[N+](=O)[O-]; Tyr(3-NO2) = N[C@@H](Cc1ccc(O)c([N+](=O)[O-])c1)C(=O)O; Gly(E-crotyl) = C/C=C/C[C@H](N)C(=O)O; NMeL = CN[C@@H](CC(C)C)C(=O)O

Legend:
HCT116 = assay: cells; format: cell-based; details: Homo sapiens, HCT-116; colon cancer cell line
[1] = system: five human cancer cell lines and two normal cell lines; details: MCF-7, A549, HCT116, L02
HepG2 = assay: cells; format: cell-based; details: Homo sapiens, hepatocellular carcinoma cell line
[2] = system: five human cancer cell lines and two normal cell lines; assay: cells
L02 = assay: cells; format: cell-based; details: normal human hepatic cell line
MCF-7 = assay: cells; format: cell-based; details: Homo sapiens, MCF7; breast adenocarcinoma cell line
HeLa = assay: cells; format: cell-based; details: Homo sapiens, cervical carcinoma cell line
Huvec-12 = assay: Cytotoxicity assay (CCK-8); format: cell-based; details: normal human umbilical vein endothelial cell line
M. tuberculosis H37Rv [3] = assay: Antitubercular activity assay, broth dilution, auto-luminescent strain; format: cell-based, Mycobacterium tuberculosis
A549 = assay: Cytotoxicity assay (CCK-8); format: cell-based; details: Homo sapiens, lung cancer cell line
M. tuberculosis H37Rv [4] = system: M. tuberculosis H37Rv; set-up: method as in Ma et al., 2017; details: ref Ma et al., 2017; cited from earlier work
[5] = Day 14th, read-out: MICs against H37Rv, Day 14th
[6] = Mycobacterium tuberculosis, H37RV, Day 7th, read-out: MICs against H37Rv, Day 7th
[7] = Mycobacterium tuberculosis, H37RV, Day 14th, read-out: MICs against H37Rv, Day 14th
[8] = Mycobacterium tuberculosis, H37RV, Day 3rd, read-out: MICs against H37Rv, Day 3rd

Structure (SMILES) | IC50 (HCT116) [µM] | promotion of cytotoxicity compared with ilamycin F [1] | IC50 (HepG2) [µM] | IC50 ([2]; read-out: IC50 against MCF-7, A549, HCT116, and L02) [µM] | IC50 ([2]; read-out: IC50 against five human cancer cell lines and two normal cell lines) [µM] | IC50 (L02) [µM] | IC50 (MCF-7) [µM] | IC50 (HeLa) [µM] | IC50 (Huvec-12) [µM] | MIC (M. tuberculosis H37Rv [3]; [5]) [µM] | MIC (M. tuberculosis H37Rv [3]; [6]) [µM] | MIC (M. tuberculosis H37Rv [3]; [7]) [µM] | IC50 (A549) [µM] | MIC against M. tuberculosis H37Rv (M. tuberculosis H37Rv [4]) [µM] | MIC (M. tuberculosis H37Rv [3]; [8]) [µM] | MIC (M. tuberculosis H37Rv [3]; Day 3rd, read-out: MICs against H37Rv, Day 3rd) [µM]
C=CC(C)(C)n1cc(C[C@@H]2NC(=O)[C@H](C/C=C/C)NC(=O)[C@H](CC(C)C)NC(=O)[C@H](C[C@H](C)C(=O)N[C@H](C(=O)OC)[C@@H](C)O)N(C)C(=O)[C@H](C)NC(=O)[C@H](Cc3ccc(O)c([N+](=O)[O-])c3)NC(=O)[C@H](CC(C)C)N(C)C2=O)c2ccccc21 [Compound 1, ilamycin NJL1] (cyclo(A[X2]L[Gly(E-crotyl)][Trp(1-(1,1-Me2-allyl))][NMeL][Tyr(3-NO2)])) | 7.2 | 3–8 fold | 17.7 | 5.7 to 9 | 5.7 to 11.3 | 6.5 | 9 | 11.3 | 10.3 | 1.7 (≈ 1.97 µg/mL) | 1.7 (≈ 1.97 µg/mL) | 1.6 to 1.7 (≈ 1.85 to 1.97 µg/mL) | 5.7 | – | – | –
C=CC(C)(C)n1cc(C[C@@H]2NC(=O)[C@H](C/C=C/C)NC(=O)[C@H](CC(C)C)NC(=O)[C@H](C[C@H](C)C(=O)O)N(C)C(=O)[C@H](C)NC(=O)[C@H](Cc3ccc(O)c([N+](=O)[O-])c3)NC(=O)[C@H](CC(C)C)N(C)C2=O)c2ccccc21 [ilamycin F, reference compound] (cyclo(A[NMeGlu(4S-Me)]L[Gly(E-crotyl)][Trp(1-(1,1-Me2-allyl))][NMeL][Tyr(3-NO2)])) | 44.8 | – | > 50 | – | – | 43.9 | 32.2 | 31 | 46.1 | – | 15.4 (≈ 16.1 µg/mL) | 1.9 (≈ 1.98 µg/mL) | 47 | 1.2 (≈ 1.25 µg/mL) | 30.7 (≈ 32 µg/mL) | –
C=CC(C)(C)n1cc(C[C@@H]2NC(=O)[C@H](C/C=C/C)NC(=O)[C@H](CC(C)C)NC(=O)[C@H](C[C@H](C)C(=O)O)N(C)C(=O)[C@H](C)NC(=O)[C@H](Cc3ccc(OC(=O)Cc4ccc(F)cc4)c([N+](=O)[O-])c3)NC(=O)[C@H](CC(C)C)N(C)C2=O)c2ccccc21 [Compound 17, ilamycin NJL17] (cyclo(A[NMeGlu(4S-Me)]L[Gly(E-crotyl)][Trp(1-(1,1-Me2-allyl))][NMeL][X3])) | > 50 | – | > 50 | – | – | > 50 | > 50 | > 50 | > 50 | – | 27.2 (≈ 32.1 µg/mL) | 27.2 (≈ 32.1 µg/mL) | > 50 | – | 27.2 (≈ 32.1 µg/mL) | –
C=CC(C)(C)n1cc(C[C@@H]2NC(=O)[C@H](C/C=C/C)NC(=O)[C@H](CC(C)C)NC(=O)[C@H](C[C@H](C)C(=O)N[C@@H](CCCNC(=N)N)C(=O)OC)N(C)C(=O)[C@H](C)NC(=O)[C@H](Cc3ccc(O)c([N+](=O)[O-])c3)NC(=O)[C@H](CC(C)C)N(C)C2=O)c2ccccc21 [Compound 4, ilamycin NJL4] (cyclo(A[NMeGlu(4S-Me)]([Arg-OMe])L[Gly(E-crotyl)][Trp(1-(1,1-Me2-allyl))][NMeL][Tyr(3-NO2)])) | 30.6 | – | > 50 | – | – | 25.9 | > 50 | 26 | 35.2 | – | 26.4 (≈ 32 µg/mL) | 26.4 (≈ 32 µg/mL) | 23 | – | 26.4 (≈ 32 µg/mL) | –
C=CC(C)(C)n1cc(C[C@@H]2NC(=O)[C@H](C/C=C/C)NC(=O)[C@H](CC(C)C)NC(=O)[C@H](C[C@H](C)C(=O)N[C@@H](Cc3ccc(O)cc3)C(=O)OC)N(C)C(=O)[C@H](C)NC(=O)[C@H](Cc3ccc(O)c([N+](=O)[O-])c3)NC(=O)[C@H](CC(C)C)N(C)C2=O)c2ccccc21 [Compound 8, ilamycin NJL8] (cyclo(A[NMeGlu(4S-Me)]([Tyr-OMe])L[Gly(E-crotyl)][Trp(1-(1,1-Me2-allyl))][NMeL][Tyr(3-NO2)])) | > 50 | – | > 50 | – | – | > 50 | > 50 | > 50 | > 50 | 1.6 (≈ 1.95 µg/mL) | 1.6 (≈ 1.95 µg/mL) | 1.6 to 1.7 (≈ 1.95 to 2.07 µg/mL) | > 50 | – | 1.6 to 3.5 (≈ 1.95 to 4.27 µg/mL) | 1.6 (≈ 1.95 µg/mL)
C=CC(C)(C)n1cc(C[C@@H]2NC(=O)[C@H](C/C=C/C)NC(=O)[C@H](CC(C)C)NC(=O)[C@H](C[C@H](C)C(=O)N[C@@H](Cc3ccccc3)C(=O)OC)N(C)C(=O)[C@H](C)NC(=O)[C@H](Cc3ccc(O)c([N+](=O)[O-])c3)NC(=O)[C@H](CC(C)C)N(C)C2=O)c2ccccc21 [Compound 7, ilamycin NJL7] (cyclo(A[NMeGlu(4S-Me)]([Phe-OMe])L[Gly(E-crotyl)][Trp(1-(1,1-Me2-allyl))][NMeL][Tyr(3-NO2)])) | > 50 | – | > 50 | – | – | > 50 | > 50 | > 50 | > 50 | – | 13.3 (≈ 16 µg/mL) | 6.6 (≈ 7.94 µg/mL) | > 50 | – | 26.6 (≈ 32 µg/mL) | –
C=CC(C)(C)n1cc(C[C@@H]2NC(=O)[C@H](C/C=C/C)NC(=O)[C@H](CC(C)C)NC(=O)[C@H](C[C@H](C)C(=O)NCc3ccc(Cl)cc3)N(C)C(=O)[C@H](C)NC(=O)[C@H](Cc3ccc(O)c([N+](=O)[O-])c3)NC(=O)[C@H](CC(C)C)N(C)C2=O)c2ccccc21 [Compound 11, ilamycin NJL11] (cyclo(A[X14]L[Gly(E-crotyl)][Trp(1-(1,1-Me2-allyl))][NMeL][Tyr(3-NO2)])) | > 50 | – | > 50 | – | – | > 50 | > 50 | > 50 | > 50 | – | 3.4 (≈ 3.96 µg/mL) | 3.4 (≈ 3.96 µg/mL) | > 50 | – | 3.4 (≈ 3.96 µg/mL) | –
C=CC(C)(C)n1cc(C[C@@H]2NC(=O)[C@H](C/C=C/C)NC(=O)[C@H](CC(C)C)NC(=O)[C@H](C[C@H](C)C(=O)O)N(C)C(=O)[C@H](C)NC(=O)[C@H](Cc3ccc(OC(=O)CCSC)c([N+](=O)[O-])c3)NC(=O)[C@H](CC(C)C)N(C)C2=O)c2ccccc21 [Compound 18, ilamycin NJL18] (cyclo(A[NMeGlu(4S-Me)]L[Gly(E-crotyl)][Trp(1-(1,1-Me2-allyl))][NMeL][X9])) | > 50 | – | > 50 | – | – | > 50 | > 50 | > 50 | > 50 | – | 28 (≈ 32 µg/mL) | 28 (≈ 32 µg/mL) | > 50 | – | 28 (≈ 32 µg/mL) | –
C=CC(C)(C)n1cc(C[C@@H]2NC(=O)[C@H](C/C=C/C)NC(=O)[C@H](CC(C)C)NC(=O)[C@H](C[C@H](C)C(=O)N[C@@H](CCSC)C(=O)OC)N(C)C(=O)[C@H](C)NC(=O)[C@H](Cc3ccc(O)c([N+](=O)[O-])c3)NC(=O)[C@H](CC(C)C)N(C)C2=O)c2ccccc21 [Compound 2, ilamycin NJL2] (cyclo(A[X4]L[Gly(E-crotyl)][Trp(1-(1,1-Me2-allyl))][NMeL][Tyr(3-NO2)])) | > 50 | – | > 50 | – | – | > 50 | > 50 | > 50 | > 50 | – | 6.7 (≈ 7.96 µg/mL) | 3.4 (≈ 4.04 µg/mL) | > 50 | – | 6.7 (≈ 7.96 µg/mL) | –
